Measured values published in patent US20240315993A1, “ANTIPARASITIC COMPOUNDS” (Intervet Inc., priority 2021, published 2024).
Like-named read-outs stand apart in the source and are kept apart here.

Experiments:
[1] = test system: Copepodids (juvenile sea lice stage of Lepeophtheirus salmonis); test: Juvenile sea lice contact assay; conditions: Lepeophtheirus salmonis, read-out: Sea lice inhibition (% of dead+damaged copepodids)
Method: Copepodids (juvenile sea lice stage of Lepeophtheirus salmonis) were exposed to seawater spiked with declining concentrations of a test compound (dissolved in a DMSO sea-water mixture). Sea lice inhibition (% of dead+damaged copepodids) was assessed after approximately 24 hours of continuous exposure. The vitality of used parasites was confirmed in a negative (solvent) control group.

[2] = test system: Mobile stages of sea lice (pre-adults, adults of Lepeophtheirus salmonis); test: Adult sea lice contact assay; conditions: read-out: EC50 (sea lice inhibition, dead+damaged)
Method: Mobile stages of sea lice (i.e., pre-adults, adults of Lepeophtheirus salmonis) were exposed to seawater spiked with declining concentrations of a test compound (dissolved in a PEG sea-water mixture). Sea lice inhibition (% of dead+damaged sea lice) was assessed after approximately 1 and 24 hours of continuous exposure in comparison to a negative (solvent) control group.

[3] = test system: larvae of Rhipicephalus microplus isolates with known resistance profiles; test: Tick larvae resistance assay (larval immersion test, LIT)
Method: A tick resistance assay (i.e., larval immersion test, LIT) was carried out using larvae of several Rhipicephalus microplus isolates with known resistance profiles (i.e.: fully susceptible; resistant to dieldrin, coumaphos, DDT, chlorpyriphos, flumethrin, cypermethrin, amitraz, fluazuron).
Tick larvae (Rhipicephalus microplus) were immersed for approximately 3 minutes in test compound solution. Tick mortality was assessed approximately 24 hours after contact exposure. The vitality of used parasites was confirmed in negative control groups (i.e., an untreated control and a solvent control).

[4] = test system: juvenile soft ticks (Ornithodoros moubata); test: Guinea pig - efficacy against argaside tick; assay type: in vivo; conditions: for duration of efficacy, subcutaneous compared with oral administration: 5 mg/kg, ticks and bed bugs
Method: (§1) Guinea pigs were locally co-infested (using an infestation device on a shaved skin area) with juvenile soft ticks (Ornithodoros moubata) and bed bugs (Cimex lectularius) before the treatment day (Day 0) to provide a baseline-negative control value. Guinea pigs were treated orally (by gavage) or subcutaneously at a dose of 5 mg/kg bodyweight of a test compound in a formulation of 10% DMF/Emulsifier+90% Aqua ad injectabilia.
(§2) Repeated local infestations with both parasites were performed at different time points after treatment. Within approximately 45 min after each infestation ten engorged ticks and ten engorged bed bugs were • collected and the percentage of dead and damaged parasites per species were • assessed approximately 24 hours following collection. The efficacy was • calculated as % of inhibition ‘killed+damaged’ parasites in a treated group in comparison to the baseline-negative control (using a modified Schneider Orelli's formula).
(§3) Results: Activity of the test compounds at different evaluation time-points (≥80% inhibition were found active): […]

[5] = test system: bed bugs (Cimex lectularius); test: Guinea pig - efficacy against bed bug; assay type: in vivo
Method: as §1, §2, §3

Rhipicephalus microplus = test: Cattle - efficacy against one-host tick; assay type: in vivo; conditions: 1 mg/kg topical (Compound 4: spray solution; others: DMA 92%/DEET 8% pour-on)
Method: Cattle were infested (whole body) with up to 3000 Rhipicephalus microplus larvae two or three times per week before and after the treatment day (Day 0). Cattle of treatment groups were treated subcutaneously or topically (spray or pour-on) at a dose of 1 mg/kg bodyweight of a test compound. As subcutaneous formulation either 2-pyrrolidon 50%/Tween 80 50% or NMP 60%/PEG300 40% was used. As topical formulation either a spray solution (DMF/Emulsifier 2%/tap water 98%) (Compound 4) or a DMA 92%/DEET 8% pour-on solution (all other compounds) or a pour-on solution containing Imwitor 988 (20%)+Miglyol 840 (QS) (Compound 453 and Compound 466) or a pour-on solution containing Miglyol 840 (QS) (Compound 453) was used. Cattle of the negative control group received only the formulation excipients of the respective administration route.
Fully engorged female ticks dropping from cattle were collected daily after treatment and counted in treatment and control groups. Efficacy was expressed using the standard ADEQ analysis method (ADEQ calculation in accordance with WAAVP guidelines for evaluating the efficacy of acaricides against ticks on ruminants; Veterinary parasitology 136 (2006) 29-43). Compounds with efficacy ≥80 percent were found active/effective. Onset of efficacy means the first Day with efficacy ≥80 percent. Duration of efficacy means the last Day with efficacy ≥80 percent.

Dermacenter variabilis = test: Cattle - efficacy against multi-host ticks (Dermacenter variabilis); assay type: in vivo
Method: (§4) Cattle were treated subcutaneously or topically (pour-on) at a dose of 5 mg/kg bodyweight of a test compound (Day 0). As subcutaneous formulation NMP 60%/PEG300 40% was used, and as pour-on formulation DMA 92%/DEET 8% was used. Cattle of the negative control group received only the formulation excipients of both formulations (SC, pour-on).
(§5) Cattle were locally infested with 30 to 40 unfed adult ticks each of Rhipicephalus appendiculatus and Dermacenter variabilis (for both species sex ratio 1:1), by placing the ticks in an ear sleeve (R. appendiculatus) or a stockinet patch attached to the body side (D. variabilis) once before treatment, and at different time points after treatment. Free (i.e., non-attached ticks) were removed from ear sleeves/stockinet patches two days after each infestation and were excluded from the efficacy calculation.
(§6) Compounds with efficacy ≥80 percent were found active.

[6] = test system: Rhipicephalus appendiculatus; test: Cattle - efficacy against multi-host ticks (Rhipicephalus appendiculatus); assay type: in vivo
Method: as §4, §5, §6

[7] = 5 mg/kg subcutaneous, after 7 days
[8] = 5 mg/kg subcutaneous, after 10 days
[9] = 5 mg/kg subcutaneous, after 14 days
[10] = 5 mg/kg subcutaneous, after 17 days
[11] = 5 mg/kg subcutaneous, re-infested after 7 days
[12] = 5 mg/kg subcutaneous, re-infested after 14 days
[13] = 5 mg/kg subcutaneous, re-infested after 21 days
[14] = 5 mg/kg subcutaneous, re-infested after 28 days
[15] = 5 mg/kg subcutaneous, therapeutic, Day 2
[16] = 5 mg/kg topical pour-on, re-infested after 7 days
[17] = 5 mg/kg topical pour-on, re-infested after 14 days
[18] = 5 mg/kg topical pour-on, re-infested after 21 days
[19] = 5 mg/kg topical pour-on, re-infested after 28 days
[20] = 5 mg/kg topical pour-on, re-infested after 35 days
[21] = 5 mg/kg topical pour-on, therapeutic, Day 2
[22] = pre-adults/adults, assessed after ~1 and 24 h
[23] = 5 mg/kg, both administration routes (topical, subcutaneous)

O=C(Nc1ccc(F)cc1)c1cc(NC(=O)[C@H]2[C@H](c3cc(Cl)cc(Cl)c3)C2(Cl)Cl)ccc1F [Compound 446]
inhibition at 0.001 µM ([1]; 24 h): 100% | EC50 [2]: ≤ 10 nM | LC50 ([3]; isolate resistant to Coumaphos, Flumethrin, Cypermethrin): 0.353 ppm | LC50 ([3]; isolate resistant to Coumaphos, Flumethrin, Cypermethrin, Amitraz): 0.48 ppm | LC50 ([3]; isolate resistant to DDT, Dieldrin, Coumaphos): 0.31 ppm | LC50 ([3]; isolate resistant to DDT, Dieldrin, Coumaphos, Chlorpyriphos): 0.463 ppm | LC50 ([3]; isolate resistant to Dieldrin, Coumaphos, Fluazuron): 0.322 ppm | LC50 ([3]; isolate: Fully susceptible): 0.344 ppm | activity against tick nymphs (≥80% inhibition, killed+damaged) ([4]; 5 mg/kg oral, Day 0): immediate activity | activity against tick nymphs (≥80% inhibition, killed+damaged) ([4]; 5 mg/kg subcutaneous, Day 0): immediate activity | activity against tick nymphs (≥80% inhibition, killed+damaged) [4, 7]: activity | activity against tick nymphs (≥80% inhibition, killed+damaged) [4, 8]: activity | activity against tick nymphs (≥80% inhibition, killed+damaged) [4, 9]: activity | activity against tick nymphs (≥80% inhibition, killed+damaged) [4, 10]: activity | duration of efficacy, subcutaneous compared with oral administration [4]: longer duration of efficacy | activity against bed bugs (≥80% inhibition, killed+damaged) ([5]; 5 mg/kg oral, Day 0): immediate activity | activity against bed bugs (≥80% inhibition, killed+damaged) ([5]; 5 mg/kg oral, after 7 days): activity | activity against bed bugs (≥80% inhibition, killed+damaged) ([5]; 5 mg/kg subcutaneous, Day 0): immediate activity | activity against bed bugs (≥80% inhibition, killed+damaged) [5, 7]: activity | activity against bed bugs (≥80% inhibition, killed+damaged) [5, 8]: activity | activity against bed bugs (≥80% inhibition, killed+damaged) [5, 9]: activity | activity against bed bugs (≥80% inhibition, killed+damaged) [5, 10]: activity | activity against bed bugs (≥80% inhibition, killed+damaged) ([5]; 5 mg/kg subcutaneous, after 21 days): activity | activity against bed bugs (≥80% inhibition, killed+damaged) ([5]; 5 mg/kg subcutaneous, after 24 days): activity | duration of efficacy (last Day with efficacy ≥80 percent) (Rhipicephalus microplus): 47 days | onset of efficacy (first Day with efficacy ≥80 percent) (Rhipicephalus microplus): 3 days | efficacy ≥80 percent against Dermacenter variabilis (Dermacenter variabilis; [11]): prophylactic efficacy | efficacy ≥80 percent against Dermacenter variabilis (Dermacenter variabilis; [12]): prophylactic efficacy | efficacy ≥80 percent against Dermacenter variabilis (Dermacenter variabilis; [13]): prophylactic efficacy | efficacy ≥80 percent against Dermacenter variabilis (Dermacenter variabilis; [14]): prophylactic efficacy | efficacy ≥80 percent against Dermacenter variabilis (Dermacenter variabilis; [15]): therapeutic efficacy | efficacy ≥80 percent against Dermacenter variabilis (Dermacenter variabilis; [16]): prophylactic efficacy | efficacy ≥80 percent against Dermacenter variabilis (Dermacenter variabilis; [17]): prophylactic efficacy | efficacy ≥80 percent against Dermacenter variabilis (Dermacenter variabilis; [18]): prophylactic efficacy | efficacy ≥80 percent against Dermacenter variabilis (Dermacenter variabilis; [19]): prophylactic efficacy | efficacy ≥80 percent against Dermacenter variabilis (Dermacenter variabilis; [20]): prophylactic efficacy | efficacy ≥80 percent against Dermacenter variabilis (Dermacenter variabilis; [21]): therapeutic efficacy | efficacy ≥80 percent against Rhipicephalus appendiculatus [6, 11]: prophylactic efficacy | efficacy ≥80 percent against Rhipicephalus appendiculatus [6, 12]: prophylactic efficacy | efficacy ≥80 percent against Rhipicephalus appendiculatus [6, 13]: prophylactic efficacy | efficacy ≥80 percent against Rhipicephalus appendiculatus [6, 15]: therapeutic efficacy | efficacy ≥80 percent against Rhipicephalus appendiculatus [6, 16]: prophylactic efficacy | efficacy ≥80 percent against Rhipicephalus appendiculatus [6, 17]: prophylactic efficacy | efficacy ≥80 percent against Rhipicephalus appendiculatus [6, 18]: prophylactic efficacy | efficacy ≥80 percent against Rhipicephalus appendiculatus [6, 19]: prophylactic efficacy

O=C(Nc1ccc(F)cc1F)c1cc(NC(=O)[C@H]2[C@H](c3cc(Cl)cc(Cl)c3)C2(Cl)Cl)ccc1F [Compound 447]
inhibition at 0.01 µM ([1]; 10 nM in seawater, ~24 h): 100% | EC50 [2, 22]: ≤ 10 nM | activity against tick nymphs (≥80% inhibition, killed+damaged) ([4]; 5 mg/kg oral, Day 0): immediate activity | activity against tick nymphs (≥80% inhibition, killed+damaged) ([4]; 5 mg/kg oral, after 7 days): activity | activity against tick nymphs (≥80% inhibition, killed+damaged) ([4]; 5 mg/kg subcutaneous, Day 0): immediate activity | activity against tick nymphs (≥80% inhibition, killed+damaged) [4, 7]: activity | activity against tick nymphs (≥80% inhibition, killed+damaged) [4, 8]: activity | activity against tick nymphs (≥80% inhibition, killed+damaged) [4, 9]: activity | activity against tick nymphs (≥80% inhibition, killed+damaged) [4, 10]: activity | duration of efficacy, subcutaneous compared with oral administration [4]: longer duration of efficacy | activity against bed bugs (≥80% inhibition, killed+damaged) ([5]; 5 mg/kg oral, Day 0): immediate activity | activity against bed bugs (≥80% inhibition, killed+damaged) ([5]; 5 mg/kg oral, after 7 days): activity | activity against bed bugs (≥80% inhibition, killed+damaged) ([5]; 5 mg/kg subcutaneous, Day 0): immediate activity | activity against bed bugs (≥80% inhibition, killed+damaged) [5, 7]: activity | activity against bed bugs (≥80% inhibition, killed+damaged) [5, 8]: activity | duration of efficacy (last Day with efficacy ≥80 percent) (Rhipicephalus microplus): ≥ 57 days | onset of efficacy (first Day with efficacy ≥80 percent) (Rhipicephalus microplus): 4 days | efficacy ≥80 percent against Dermacenter variabilis (Dermacenter variabilis; [11]): prophylactic efficacy | efficacy ≥80 percent against Dermacenter variabilis (Dermacenter variabilis; [14]): prophylactic efficacy | efficacy ≥80 percent against Dermacenter variabilis (Dermacenter variabilis; [15]): therapeutic efficacy | efficacy ≥80 percent against Dermacenter variabilis (Dermacenter variabilis; [16]): prophylactic efficacy | efficacy ≥80 percent against Dermacenter variabilis (Dermacenter variabilis; [19]): prophylactic efficacy | efficacy ≥80 percent against Dermacenter variabilis (Dermacenter variabilis; [21]): therapeutic efficacy | effective in treating existing tick infestations (Dermacenter variabilis; [23]): 100% | efficacy ≥80 percent against Rhipicephalus appendiculatus [6, 13]: prophylactic efficacy | efficacy ≥80 percent against Rhipicephalus appendiculatus [6, 15]: therapeutic efficacy | efficacy ≥80 percent against Rhipicephalus appendiculatus [6, 16]: prophylactic efficacy | efficacy ≥80 percent against Rhipicephalus appendiculatus [6, 17]: prophylactic efficacy | efficacy ≥80 percent against Rhipicephalus appendiculatus [6, 19]: prophylactic efficacy | efficacy ≥80 percent against Rhipicephalus appendiculatus [6, 20]: prophylactic efficacy | efficacy ≥80 percent against Rhipicephalus appendiculatus [6, 21]: therapeutic efficacy | effective in treating existing tick infestations [6, 23]: 100%

Cc1cc(NC(=O)c2cc(NC(=O)[C@H]3[C@H](c4cc(Cl)cc(Cl)c4)C3(Cl)Cl)ccc2Cl)ncc1F [Compound 454]
inhibition at 0.1 µM ([1]; 100 nM in seawater, ~24 h): 100% | EC50 [2, 22]: ≤ 10 nM | activity against tick nymphs (≥80% inhibition, killed+damaged) ([4]; 5 mg/kg oral, Day 0): immediate activity | activity against tick nymphs (≥80% inhibition, killed+damaged) ([4]; 5 mg/kg subcutaneous, Day 0): immediate activity | activity against tick nymphs (≥80% inhibition, killed+damaged) [4, 7]: activity | activity against tick nymphs (≥80% inhibition, killed+damaged) [4, 8]: activity | duration of efficacy, subcutaneous compared with oral administration [4]: longer duration of efficacy | activity against bed bugs (≥80% inhibition, killed+damaged) ([5]; 5 mg/kg oral, Day 0): immediate activity | activity against bed bugs (≥80% inhibition, killed+damaged) ([5]; 5 mg/kg subcutaneous, Day 0): immediate activity
